In ChEMBL document CHEMBL1151185, “Isolation and structure elucidation of a novel antimalarial macrocyclic polylactone, menisporopsin A, from the fungus Menisporopsis theobromae” (J Nat Prod, 2004):
Values after ≈ are worked out from the molar mass of the structure shown. Active and inactive are the calls of the source. No cut-off for these calls is given here.

Experiments:
[1] = test system: Candida albicans; assay: Antimicrobial activity against Candida albicans at 20ug/mL; type: functional, organism-based
[2] = test system: BC1; assay: Cytotoxicity against human BC1 cells at 20 ug/mL by colorimetric method; type: functional, cell-based
[3] = test system: Plasmodium falciparum; assay: Antimalarial activity against multidrug-resistant Plasmodium falciparum K1 at 20 ug/mL as reduced [3H]hypoxanthine uptake; type: functional, organism-based
[4] = Cytotoxicity against human BC1 cells by colorimetric method; type: functional, cell-based
[5] = test system: Plasmodium falciparum; assay: Antimalarial activity against multidrug-resistant Plasmodium falciparum K1 by [3H]hypoxanthine uptake; type: functional, organism-based
[6] = test system: Mycobacterium tuberculosis; assay: Antimycobacterial activity against Mycobacterium tuberculosis H37Ra by microplate alamar blue assay; type: functional
[7] = test system: KB; assay: Cytotoxicity against human KB cells by colorimetric method; type: functional, cell-based

Compound	Activity [1]	Activity [2]	Activity [3]	IC50 [4] [mg/L]	IC50 [5] [mg/L]	MIC [6] [mg/L]	IC50 [7] [mg/L]
COc1cc2c(c(OC)c1)C(=O)O[C@H](C)CC(=O)O[C@H](C)Cc1cc(OC)cc(OC)c1C(=O)O[C@H](C)CC(=O)O[C@H](C)Cc1cc(OC)cc(OC)c1C(=O)O[C@H](C)C[C@@H](O)C2	inactive	inactive	inactive				
C[C@@H]1Cc2cc(O)cc(O)c2C(=O)O[C@H](C)CC(=O)O[C@H](C)Cc2cc(O)cc(O)c2C(=O)O[C@H](C)C[C@@H](O)Cc2cc(O)cc(O)c2C(=O)O[C@H](C)CC(=O)O1 [MENISPOROPSIN A]	inactive			5 (≈ 6.26 µM)	4 (≈ 5.01 µM)	50 (≈ 62.6 µM)	6 (≈ 7.51 µM)
